Data published in patent US20250270205A1, “COMPOSITIONS AND METHODS FOR INHIBITING TREM-1” (AUGUSTA UNIVERSITY RESEARCH INSTITUTE, INC., priority 2020, published 2025).

Assays:
[1] = biological target: T1, TREM-1 (Homo sapiens, UniProt Q9NP99); assay: TREM-1 reporter cell line blocking study (GFP expression by flow cytometry); assay type: cell-based; set-up: expressed in transfected cells; host or cells: TREM-1 reporter cell line (GFP read-out); conditions: for binding and activation of TREM-1 receptor on reporter cells (GFP expression): TREM-1-positive reporter cells, flow cytometry; for inhibitory effect on agonist-activated TREM-1-specific cells: preincubated with compound 4 hrs, then agonist antibody AF1278 for 24 hrs
T1 sequence (Q9NP99 21-234): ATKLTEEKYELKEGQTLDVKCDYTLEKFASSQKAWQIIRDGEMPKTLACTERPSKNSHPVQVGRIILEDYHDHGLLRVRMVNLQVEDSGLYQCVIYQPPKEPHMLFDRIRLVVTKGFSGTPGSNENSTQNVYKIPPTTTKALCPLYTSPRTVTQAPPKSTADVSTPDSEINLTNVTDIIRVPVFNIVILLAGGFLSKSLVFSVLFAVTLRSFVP
Method: FIG. 2A is a diagram showing that the engagement of human TREM-1 receptor activates a reporter cell line. […] FIG. 2C is a line graph of the flow cytometry data of FIG. 2B.
(§1) For blocking studies, TREM-1-positive cells were preincubated with each tested compounds for 4 hrs followed by stimulation with agonist antibody AF1278 for an additional 24 hrs (FIGS. 2A-2B).

[2] = tested on: reporter cells; assay: Cytotoxicity on TREM-1 reporter cells; assay type: cell-based; conditions: compared to Compound 118818
Method: as §1

[3] = tested on: neutrophils; assay: Assessment of cytotoxicity: number of neutrophils in TREM-1 agonist Ab-stimulated PBMCs; conditions: human PBMCs, compound at 50 μM 2 hrs pretreatment, TREM-1 agonist Ab 24 hrs
Method: Peripheral blood mononuclear cells (PBMCs) were isolated from healthy volunteers and were stimulated with TREM-1 agonist Ab for 24 hrs, at concentration of 4 μg/ml (red) or pretreated with indicated compounds (at 50 μM) for 2 hrs and stimulated with agonist AB at concentration of 4 pg/mlfor 24 hrs (blue)

[4] = tested on: B16F10 murine melanoma cell; assay: Wound healing assay (cell migration); assay type: cell-based; conditions: 50 μM, 24 hrs
Method: (§2) B16F10 cells were cultured in 6 well plates incubated with either vehicle alone or vehicle with VJDT at 50 μM and streaks were made using a tip when cells were at 80% confluency. Streaks were photographed at 0 hrs or 24 hrs at 100×. B16F10 cells were treated with VJDT at 50 μM concentration followed by 10 μM CFSE labeling according to manufacturer's protocol. After 48 hrs cells were analyzed by flow cytometry for CFSE intensity that will be inversely proportional to cell proliferation. Further, cell cycle assay via propidium iodide on B16F10 cells with or without VIDT treatment was performed for investigating the anti-proliferative effect of VJDT in tumor cells

[5] = biological target: T1, TREM-1; assay: TREM-1-mediated proinflammatory cytokine production by activated human neutrophils (flow cytometry); assay type: cell-based; set-up: endogenous in cells; host or cells: PBMCs from healthy human volunteers, gated on CD15/CD16 neutrophils; conditions: IL-8, IL-6, IL-12 intracellular staining, vs MH and NCI 118818
Method: Quantification (percentage) of cytokine-positive neutrophils from untreated, Morin Hydrate (MH)-treated, 118818-treated, and VJDT 8293-treated compounds (from triplicates) was performed. Cells isolated from the same healthy volunteer have been used for indicated experiments.
PBMCs were stained cell surface markers CD15 and CD16. In addition, intracellular staining for proinflammatory cytokines, such as IL-8, IL-6 and IL-12, was performed. PBMCs were gated on CD15, CD16 markers to identify the population of neutrophils.

[6] = tested on: Wild-type mice (Trem1+/+) with CCl4 injury; assay: CCl4 liver injury, inflammatory cell infiltration at early stages of liver fibrosis; assay type: in vivo; conditions: 25 mg/kg oral
Method: Wild-type mice (Trem1^+/+) were orally administered VJDT (25 mg/kg) 5 consecutive days prior to injury with CCl4 (2 ml/kg, diluted 1:4 in corn oil) (24 hrs) or one dosage of control corn oil (Sigma-Aldrich, St. Louis, MO, USA). Liver cells were isolated 24 hrs after CCl4 injury, perfused with calcium and magnesium-free 40° C. prewarmed HBSS solution (Corning Life Sciences, Corning, NY, USA) and digested with collagenase type I. The cell suspension was filtered through a 70 μm cell strainer and then centrifuged at 50 g for 5 min at 4° C. to eliminate hepatocytes. Cells remaining in the supernatant were layered on HISTOPAQUE®-1083 and centrifuged at 1000 g for 15 min at 4° C. without a break. The non-parenchymal cell fraction was washed once with PBS at 300 g for 10 min at 4° C., followed by flow cytometry.
Nonparenchymal cells isolated from Trem1^+/+ livers with CCl4 injury receiving VJDT treatment were analyzed by flow cytometry to evaluate the infiltration of myeloid cells. Liver-associated cells were classified into 3 populations: F4/80^+CD11b^− resident Kupffer cells, F4/80^+CD11b^+Ly6C^hiLy6G^lo monocyte-derived macrophages and F4/80^+CD11b^+Ly6C^loLy6G^hi inflammatory neutrophils.

[7] = tested on: B16F10 cells; assay: Cell cycle assay via propidium iodide; assay type: cell-based, murine; conditions: B16F10 cells with or without treatment
Method: as §2

[8] = tested on: human hepatocellular carcinoma cells (HepG2); assay: Cell proliferation, Cell Counting Kit-8 (CCK-8); assay type: cell-based; conditions: HepG2, 72 hrs treatment, n=6, read-out: IC50 to inhibit cell proliferation
Method: Cell proliferation was measured using Cell Counting Kit-8 (CCK-8, GLPBIO, Montclair, CA. Catalog No. GK10001) according to the manufacturer's instructions. HepG2 cells were seeded in a 96-well plate at 3×10^3 cells/well and incubated at 37° C. in complete medium for 24 hrs before being treated with the indicated concentrations of VIDT for 72 hrs. After treatment, cells were incubated with 10 μl CCK8 at 37° C. for 2 hrs. Absorbance at 450 nm was determined using a microplate reader. The IC50 value was calculated on the nonlinear regression fit method by the GraphPad Prism software.

[9] = tested on: B16F10 cells; assay: CFSE cell proliferation assay; assay type: cell-based, murine; conditions: 50 μM, 48 hrs; listed as VIDT
Method: as §2

SMILES: Cc1ccc(NC(=O)Nc2nc3ccccc3s2)cc1NC(=O)Nc1nc2ccccc2s1 [Compound 319990]
- binding and activation of TREM-1 receptor on reporter cells (GFP expression) [1]: significant enhancement of GFP expression
- cytotoxicity effect on reporter cells [2]: higher cytotoxicity effect

SMILES: N#CC1=CC2CN(Cc3ccccc3)C1C1C(=O)N(c3ccccc3)C(=O)C21 (stereo not shown) [Compound 118818, 9-Benzyl-1,3-dioxo-2-phenyl-2,3,3a,4,7,7a-hexahydro-1H-4,7-(epiminomethano) isoindole-5-carbonitrile]
- binding and activation of TREM-1 receptor on reporter cells (GFP expression) [1]: significant enhancement of GFP expression
- number of neutrophils (indicating level of cytotoxicity) [3]: 19,5%

SMILES: O=c1c(O)c(-c2ccc(O)cc2O)oc2cc(O)cc(O)c12 [Morin Hydrate, 2′,3,4′,5,7-pentahydroxyflavone]
- number of neutrophils (indicating level of cytotoxicity) [3]: 24.3%

SMILES: Cc1c(O)ccc2c(O)c(NC(=O)c3ccc4c(c3)CCC(C)(C)O4)c(=O)oc12 [compound 5157]
- binding and activation of TREM-1 receptor on reporter cells (GFP expression) [1]: significant enhancement of GFP expression
- inhibitory effect on agonist-activated TREM-1-specific cells [1]: did not provide any inhibitory effect

SMILES: N#CC1=CC2C(=O)N(Cc3ccccc3)C1C1C(=O)N(c3ccccc3)C(=O)C21 [VJDT 8293, (3aR,7aR)-9-benzyl-1,3,8-trioxo-2-phenyl-2,3,3a,4,7,7a-hexahydro-1H-4,7-(epiminomethano) isoindole-5-carbonitrile]
- cell migration in wound healing assay [4]: significantly inhibits
- cell migration in wound healing assay ([4]; listed as VIDT): significantly inhibited
- inhibitory effect on TREM-1 mediated proinflammatory cytokine production [5]: much stronger inhibitory effect
- infiltration of monocyte-derived macrophages in liver ([6]; 5 consecutive days prior to CCl4 (2 ml/kg), 24 hrs after injury, p<0.001): 3-6%
- infiltration of inflammatory neutrophils in liver ([6]; 5 consecutive days prior to CCl4 (2 ml/kg), 24 hrs after injury, p<0.01): 8-10%
- protective effect to liver injury ([6]; CCl4 injury): strong protective effect
- cytokine secretion in neutrophils ([6]; compared to control group (DMSO vehicle)): significantly decreased cytokine secretion
- cell cycle arrest [7]: significant cell cycle arrest in the S and G2 phases
- IC50 [8]: 14.7 µM
- cell proliferation (CFSE intensity) [9]: significantly inhibites

SMILES: O=C(O)Cc1ccc(N=Nc2c(O)c(C(=O)O)cc3ccccc23)cc1 [compound 156563]
- binding and activation of TREM-1 receptor on reporter cells (GFP expression) [1]: significant enhancement of GFP expression
- inhibitory effect on agonist-activated TREM-1-specific cells [1]: did not provide any inhibitory effect
